In US11339170B1, “Spiropyrrolidine derived antiviral agents” (priority 2021, dated 2022):
Where two headings read alike, the source gives them in different places.

What was measured:
[1] = biological target: SARS-CoV-2 3CL-protease (Severe acute respiratory syndrome coronavirus 2 (2019-nCoV) (SARS-CoV-2), UniProt P0DTD1); test: SARS-CoV-2 3C-like (3CL) protease fluorescence assay (FRET); format: biochemical
[2] = system: 229E human corona virus (hCoV); test: 229E live virus assay (CPE, ATPlite readout) in MRC-5 cells; format: cell-based, hCoV-229E; details: Human coronavirus 229E, MRC5, 144 h, read-out: 229E EC50

| SMILES | IC50 [1] | EC50 [2] | IC50 ([1]; read-out: FRET IC50, recombinant SARS-CoV-2 3CL-protease 10 nM, 30 min preincubation, duplicate) | IC50 ([1]; recombinant SARS-CoV-2 3CL-protease 10 nM, 30 min preincubation, duplicate, read-out: FRET IC50) |
| --- | --- | --- | --- | --- |
| [2H]C([2H])([2H])N(C(=O)C(=O)Nc1ccc(F)c(F)c1)[C@@H](CCCC)C(=O)N1C[C@]2(C[C@H]1C#N)C(=O)Nc1ccccc12 [Compound 47] | < 100 nM | < 100 nM |  |  |
| [2H]C([2H])([2H])N(C(=O)C(=O)Nc1cnc2ccccc2c1)[C@@H](CC1CC1)C(=O)N1C[C@]2(C[C@H]1C#N)C(=O)Nc1ccccc12 [Compound 51] | < 100 nM | < 100 nM |  |  |
| [2H]C([2H])([2H])N(C(=O)C(=O)Nc1ccc(F)cc1)[C@@H](CC1CC1)C(=O)N1C[C@]2(C[C@H]1C#N)C(=O)Nc1ccccc12 [Compound 39] | < 100 nM | < 100 nM |  |  |
| CC(C)C[C@@H](C(=O)N1C[C@]2(C[C@H]1C#N)C(=O)Nc1ccccc12)N(C)C(=O)C(=O)NC(C)(C)C [Compound 44] | < 100 nM | < 100 nM |  |  |
| [2H]C([2H])([2H])N(C(=O)C(=O)Nc1ccccn1)[C@@H](Cc1ccccc1)C(=O)N1C[C@]2(C[C@H]1C#N)C(=O)Nc1ccccc12 [Compound 33] | < 100 nM | < 100 nM |  |  |
| CC(C)C[C@@H](C(=O)N1C[C@]2(C[C@H]1C#N)C(=O)Nc1ccccc12)N(C)C(=O)C(=O)Nc1nc2ccccc2[nH]1 [Compound 52] | 100 to 1000 nM | < 100 nM |  |  |
| [2H]C([2H])([2H])N(C(=O)C(=O)Nc1ccc(C(F)(F)F)cc1C(F)(F)F)[C@@H](CC1CC1)C(=O)N1C[C@]2(C[C@H]1C#N)C(=O)Nc1ccccc12 [Compound 68] | < 100 nM | < 100 nM |  |  |
| [2H]C([2H])([2H])N(C(=O)C(=O)N(C)c1ccccc1)[C@@H](CC(C)(C)C)C(=O)N1C[C@]2(C[C@H]1C#N)C(=O)Nc1ccccc12 [Compound 36] | > 1000 nM | 100 to 1000 nM |  |  |
| CC(C)C[C@@H](C(=O)N1C[C@]2(C[C@H]1C#N)C(=O)Nc1ccccc12)N(C)C(=O)C(=O)Nc1cccc2ccccc12 [Compound 8] | < 100 nM | < 100 nM |  |  |
| CC(C)C[C@@H](C(=O)N1C[C@]2(C[C@H]1C#N)C(=O)Nc1ccccc12)N(C)C(=O)C(=O)C1CC1 [Compound 43] | < 100 nM | < 100 nM |  |  |
| [2H]C([2H])([2H])N(C(=O)C(=O)Nc1ccc(F)cc1F)[C@@H](CC(C)(C)C)C(=O)N1C[C@]2(C[C@H]1C#N)C(=O)Nc1ccccc12 [Compound 23] | < 100 nM | < 100 nM |  |  |
| [2H]C([2H])([2H])N(C(=O)C(=O)Nc1ccc(F)c(F)c1)[C@@H](Cc1ccc(F)cc1)C(=O)N1C[C@]2(C[C@H]1C#N)C(=O)Nc1ccccc12 [Compound 46] | < 100 nM | < 100 nM |  |  |
| CC(C)C[C@@H](C(=O)N1C[C@]2(C[C@H]1C#N)C(=O)Nc1ccccc12)N(C)C(=O)C(=O)Nc1ccc(F)c(F)c1 [Compound 5] | 100 to 1000 nM | < 100 nM |  |  |
| [2H]C([2H])([2H])N(C(=O)C(=O)Nc1cnc2ccccc2c1)[C@@H](CCCC)C(=O)N1C[C@]2(C[C@H]1C#N)C(=O)Nc1ccccc12 [Compound 50] | < 100 nM | < 100 nM |  |  |
| CC(C)(C)C[C@H](NC(=O)C(=O)NC(C)(C)C)C(=O)N1C[C@]2(C[C@H]1C#N)C(=O)Nc1ccccc12 [Compound 69] | < 100 nM |  |  |  |
| CC(C)(C)C[C@H](NC(=O)C(=O)NC1(c2ccc(F)cc2F)CC1)C(=O)N1C[C@]2(C[C@H]1C#N)C(=O)Nc1ccccc12 [Compound 72] | < 100 nM | < 100 nM |  |  |
| CN(C(=O)C(=O)Nc1ccc(F)c(F)c1)[C@@H](Cc1ccccc1)C(=O)N1C[C@]2(C[C@H]1C#N)C(=O)Nc1ccccc12 [Compound 45] | < 100 nM | < 100 nM |  |  |
| [2H]C([2H])([2H])N(C(=O)C(=O)NC1CCCC1)[C@@H](CC(C)(C)C)C(=O)N1C[C@]2(C[C@H]1C#N)C(=O)Nc1ccccc12 [Compound 31] | < 100 nM | < 100 nM |  |  |
| CC(C)C[C@@H](C(=O)N1C[C@]2(C[C@H]1C#N)C(=O)Nc1ccccc12)N(C)C(=O)C(=O)Nc1ccc(F)cc1F [Compound 1] |  |  | < 100 nM |  |
| CC(C)C[C@@H](C(=O)N1C[C@]2(C[C@H]1C#N)C(=O)Nc1ccccc12)N(C)C(=O)C(=O)NC1CC1 [Compound 40] | < 100 nM | < 100 nM |  |  |
| [2H]C([2H])([2H])N(C(=O)C(=O)NC1CCC1)[C@@H](CC(C)(C)C)C(=O)N1C[C@]2(C[C@H]1C#N)C(=O)Nc1ccccc12 [Compound 25] | < 100 nM | < 100 nM |  |  |
| CC(C)C[C@@H](C(=O)N1C[C@]2(C[C@H]1C#N)C(=O)Nc1ccccc12)N(C)C(=O)C(=O)Nc1nn(C)c2ccccc12 [Compound 16] | < 100 nM | < 100 nM |  |  |
| [2H]C([2H])([2H])N(C(=O)C(=O)Nc1ccc2ncccc2c1)[C@@H](CC(C)(C)C)C(=O)N1C[C@]2(C[C@H]1C#N)C(=O)Nc1ccccc12 [Compound 37] | < 100 nM | < 100 nM |  |  |
| CC(C)C[C@@H](C(=O)N1C[C@]2(C[C@H]1C#N)C(=O)Nc1ccccc12)N(C)C(=O)C(=O)Nc1ccccc1 [Compound 3] | < 100 nM | < 100 nM |  |  |
| CN(C(=O)C(=O)Nc1ccc(F)cc1F)[C@@H](CC(C)(C)C)C(=O)N1C[C@]2(C[C@H]1C#N)C(=O)Nc1ccccc12 [Compound 20] | < 100 nM | < 100 nM |  |  |

| SMILES | IC50 [1] | EC50 [2] | IC50 ([1]; read-out: FRET IC50, recombinant SARS-CoV-2 3CL-protease 10 nM, 30 min preincubation, duplicate) | IC50 ([1]; recombinant SARS-CoV-2 3CL-protease 10 nM, 30 min preincubation, duplicate, read-out: FRET IC50) |
| --- | --- | --- | --- | --- |
| CC(C)C[C@@H](C(=O)N1C[C@]2(C[C@H]1C#N)C(=O)Nc1ccccc12)N(C)C(=O)C(=O)Nc1ccc(F)cc1F [Compound 2] |  |  |  | < 100 nM |
| [2H]C([2H])([2H])N(C(=O)C(=O)C(C)(C)C)[C@@H](CCCC)C(=O)N1C[C@]2(C[C@H]1C#N)C(=O)Nc1ccccc12 [Compound 48] | < 100 nM | < 100 nM |  |  |
| [2H]C([2H])([2H])N(C(=O)C(=O)Nc1ccc(F)c(F)c1)[C@@H](CC(C)(C)C)C(=O)N1C[C@]2(C[C@H]1C#N)C(=O)Nc1ccccc12 [Compound 24] | < 100 nM | < 100 nM |  |  |
| CC(C)C[C@@H](C(=O)N1C[C@]2(C[C@H]1C#N)C(=O)Nc1ccccc12)N(C)C(=O)C(=O)Nc1nc2ccccc2n1C [Compound 18] | < 100 nM | < 100 nM |  |  |
| [2H]C([2H])([2H])N(C(=O)C(=O)N1CCCCC1)[C@@H](CC(C)(C)C)C(=O)N1C[C@]2(C[C@H]1C#N)C(=O)Nc1ccccc12 [Compound 29] | 100 to 1000 nM | < 100 nM |  |  |
| [2H]C([2H])([2H])N(C(=O)C(=O)Nc1c(C)cccc1C)[C@@H](CC(C)(C)C)C(=O)N1C[C@]2(C[C@H]1C#N)C(=O)Nc1ccccc12 [Compound 35] | < 100 nM | < 100 nM |  |  |
| CC(C)C[C@@H](C(=O)N1C[C@]2(C[C@H]1C#N)C(=O)Nc1ccccc12)N(C)C(=O)C(=O)N(C)c1ccccc1 [Compound 9] | < 100 nM | < 100 nM |  |  |
| [2H]C([2H])([2H])N(C(=O)C(=O)NC1CCCCC1)[C@@H](CC(C)(C)C)C(=O)N1C[C@]2(C[C@H]1C#N)C(=O)Nc1ccccc12 [Compound 26] | < 100 nM | < 100 nM |  |  |
| CC(C)(C)C[C@H](NC(=O)C(=O)NC1CC1)C(=O)N1C[C@]2(C[C@H]1C#N)C(=O)Nc1ccccc12 [Compound 70] | < 100 nM | < 100 nM |  |  |
| [2H]C([2H])([2H])N(C(=O)C(=O)NC1CC1)[C@@H](Cc1ccccc1)C(=O)N1C[C@]2(C[C@H]1C#N)C(=O)Nc1ccccc12 [Compound 34] | < 100 nM | < 100 nM |  |  |
| [2H]C([2H])([2H])N(C(=O)C(=O)Nc1ccc(F)c(F)c1)[C@@H](CC1CC1)C(=O)N1C[C@]2(C[C@H]1C#N)C(=O)Nc1ccccc12 [Compound 38] | < 100 nM | < 100 nM |  |  |
| [2H]C([2H])([2H])N(C(=O)C(=O)Nc1ccccc1)[C@@H](Cc1ccccc1)C(=O)N1C[C@]2(C[C@H]1C#N)C(=O)Nc1ccccc12 [Compound 32] | < 100 nM | < 100 nM |  |  |
| [2H]C([2H])([2H])N(C(=O)C(=O)Nc1ccc(F)cc1)[C@@H](Cc1ccccc1)C(=O)N1C[C@]2(C[C@H]1C#N)C(=O)Nc1ccccc12 [Compound 30] | < 100 nM | < 100 nM |  |  |
| [2H]C([2H])([2H])N(C(=O)C(=O)Nc1ccccn1)[C@@H](CC(C)(C)C)C(=O)N1C[C@]2(C[C@H]1C#N)C(=O)Nc1ccccc12 [Compound 27] | 100 to 1000 nM | < 100 nM |  |  |
| CC(C)C[C@@H](C(=O)N1C[C@]2(C[C@H]1C#N)C(=O)Nc1ccccc12)N(C)C(=O)C(=O)Nc1cnc2ccccc2c1 [Compound 15] | < 100 nM | < 100 nM |  |  |
| CC(C)C[C@@H](C(=O)N1C[C@]2(C[C@H]1C#N)C(=O)Nc1ccccc12)N(C)C(=O)C(=O)Nc1ccc2ccccc2n1 [Compound 13] | < 100 nM | < 100 nM |  |  |
| CC(C)C[C@@H](C(=O)N1C[C@]2(C[C@H]1C#N)C(=O)Nc1ccccc12)N(C)C(=O)C(=O)N(C)C1CC1 [Compound 42] | < 100 nM | < 100 nM |  |  |
| CC(C)(C)C[C@H](NC(=O)C(=O)Nc1c(F)cccc1F)C(=O)N1C[C@]2(C[C@H]1C#N)C(=O)Nc1ccccc12 [Compound 71] | < 100 nM | < 100 nM |  |  |
| [2H]C([2H])([2H])N(C(=O)C(=O)NC(C)(C)C)[C@@H](CCCC)C(=O)N1C[C@]2(C[C@H]1C#N)C(=O)Nc1ccccc12 [Compound 49] | < 100 nM | < 100 nM |  |  |
| CC(C)C[C@@H](C(=O)N1C[C@]2(C[C@H]1C#N)C(=O)Nc1ccccc12)N(C)C(=O)C(=O)Nc1ccc2ncccc2c1 [Compound 14] | < 100 nM | < 100 nM |  |  |
| CC(C)C[C@@H](C(=O)N1C[C@]2(C[C@H]1C#N)C(=O)Nc1ccccc12)N(C)C(=O)C(=O)Nc1ccc2cnccc2c1 [Compound 12] | < 100 nM | < 100 nM |  |  |
| CC(C)C[C@@H](C(=O)N1C[C@]2(C[C@H]1C#N)C(=O)Nc1ccccc12)N(C)C(=O)C(=O)Nc1cc(F)c(F)c(F)c1 [Compound 6] | 100 to 1000 nM | < 100 nM |  |  |
| CC(C)C[C@@H](C(=O)N1C[C@]2(C[C@H]1C#N)C(=O)Nc1ccccc12)N(C)C(=O)C(=O)Nc1ccc2ccccc2c1 [Compound 7] | < 100 nM | < 100 nM |  |  |
| CC(C)C[C@@H](C(=O)N1C[C@]2(C[C@H]1C#N)C(=O)Nc1ccccc12)N(C)C(=O)C(=O)Nc1ccc2cccnc2c1 [Compound 11] | < 100 nM | < 100 nM |  |  |
